According to patent EP0702683B1, “06-SUBSTITUTED GUANINE DERIVATIVES, A PROCESS FOR THEIR PREPARATION AND THEIR USE IN TREATING TUMOUR CELLS” (Cancer Research Technology Limited, priority 1993, dated 1994):
Where two headings read alike, the source gives them in different places.

Experiments:
ATase [1] = target: T1, ATase (Homo sapiens, UniProt P16455); experiment: In vitro ATase inactivation assay with purified recombinant human ATase; assay type: biochemical; design: made in house; conditions: for ability to inactivate recombinant human ATase: up to the highest concentration used, in words; for effectiveness in the in vitro ATase inactivation assay compared with BeG: Figure 1, in words
T1 sequence (P16455 1-207): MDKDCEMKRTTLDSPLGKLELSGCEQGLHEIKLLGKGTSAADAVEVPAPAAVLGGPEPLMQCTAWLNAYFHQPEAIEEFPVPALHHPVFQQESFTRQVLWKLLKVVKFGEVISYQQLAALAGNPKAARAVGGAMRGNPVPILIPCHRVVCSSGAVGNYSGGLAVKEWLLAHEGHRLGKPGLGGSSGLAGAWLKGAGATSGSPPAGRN
Protocol: The cDNA cloning and overexpression of the human ATase has been reported previously^23. Purification of the recombinant proteins was achieved either by affinity chromatography through a DNA-cellulose column as described by Wilkinson et al.,^25, 26, or by DEAE-cellulose ion-exchange chromatography. For the latter, the ATase protein was partially purified by ammonium sulphate precipitation (30 - 60%) and dialysed against 10 mM Tris-HCl pH 7.5, 1 mM DTT, 2 mM EDTA, 10% glycerol, before loading on a DEAF-cellulose column. The ATase was then eluted with a 0-0.1 M NaCl gradient.
Compounds to be tested were dissolved in DMSO to a final concentration of 10 mM and diluted just before use in buffer I containing 1 mg/ml bovine serum albumin (IBSA). Recombinant ATase was diluted in IBSA and titrated in order that the reaction be conducted under ATase, and not substrate, limiting conditions. In each assay, fixed amounts of ATase (60-75 fmol) were incubated with varying amounts of 0^6-benzylguanine, or test compound in a total volume of 200 µl of IBSA containing 10 µg of calf thymus DNA at 37°C for 1 hour. The [^3H]-methylated-DNA substrate (100 µl containing 6.7 µg of DNA and 100 fmol of 0^6-methylguanine) was added and incubation continued at 37° for 1 hour, until the reaction was completed. Following acid hydrolysis of the DNA as previously described^21 the [^3H]-methylated protein was recovered and quantitated by liquid scintillation counting. Samples were typically assayed in duplicate and experiments repeated several times. I50 is the concentration of inactivator required to produce a 50% reduction in ATase activity.

[2] = Stability of inactivators at 37°C (spectrophotometric half life); assay type: physicochemical
Protocol: Inactivators (10mM in DMSO) were diluted to 0.1mM in prewarmed degassed buffer I (1mM EDTA, 50mM Tris pH 8.3) or PBS (pH 7-7.2). […] Samples were immediately transferred to a CARY13 spectrophotometer (cuvette block held at 37°C) and scanned at an appropriate wavelength (according to the spectral properties of the compound) at 3-10 minute intervals for up to 80 hours. The results were expressed as percentage absorbance change versus time and T1/2 values (half life) extrapolated from this.

Raji cells = experiment: Sensitization of Raji cells to BCNU (XTT assay); assay type: cell-based, human; conditions: BCNU, 2 hour pretreatment; for Raji sensitization (D90.^C/D90.^I) 0.5µM: inactivator 0.5µM; for Raji sensitization (D90.^C/D90.^I) 1.0µM: inactivator 1.0µM; for Raji sensitization (D90.^C/D90.^I) O.1µM: inactivator O.1µM
Protocol: Following a 2 hour incubation at 37°C, medium containing either increasing doses of BCNU, temozolomide or equivalent vehicle was added and the cells allowed to grow for 6 days. At this time XTT solution was added and the cells incubated for a further 4 hours at 37°C. The resulting red/orange formazan reaction product was quantified by measuring absorption at 450nm on a microtitre platereader.

ATase [3] = target: T1, ATase; experiment: Inactivation of ATase activity in Raji cells; assay type: cell-based; design: endogenous in cells; host or cells: Raji; conditions: Raji cells, 2 hours at 37°C; read-out: Raji I50
Protocol: Mammalian cells were cultured under standard conditions. For example, Raji (a human lymphoblastoid cell line from a Burkitt's lymphoma) cells were grown in suspension culture in RPMI medium supplemented with 10% horse serum. A375M cells are human melanoma cells from which the xenografts described below were established following subcutaneous injection into nude mice: WiDr cells are a human colon carcinoma cell line: Hamster+120 cells are a mitozolomide-selected subline of a Chinese hamster lung fibroblast V79 cell line called RJKO: Yoshida cells are a rat carcinosarcoma cell line and YRbus is a busulphan resistant subline thereof: XP cells are an SV40-transformed fibroblast cell line originally from the skin of a Xeroderma pigmentosum patient, pHMGhAT2b cells are a clone of these cells that have been transfected with a mammalian cell expression vector containing the human ATase cDNA and pHMGla cells are a clone that have been transfected with the expression vector only (i.e. one not containing the human ATase cDNA). Cell pellets were resuspended in cold (4°C) buffer I containing 2 µg/ml leupeptin and sonicated for 10 seconds at 12 µ peak to peak distance. After cooling in ice, the cells were sonicated for a further 10 seconds at 18 µ. Immediately after sonication, 0.01 volumes of 8.7 mg/ml phenylmethanesulphonylfluoride in ethanol was added and the sonicates centrifuged at 15 000 g for 10 minutes at 4°C to pellet cell debris. The supernatant was kept for determination of ATase activity (see below).
Cells were diluted to 10^6/ml in culture medium containing either the appropriate concentration of inactivator or an equivalent volume of vehicle (DMSO). Following incubation at 37°C for 2 hours the cells were harvested by centrifugation, washed twice with PBS and the resulting cell pellets (between 1-2 x 10^7 per pellet) stored at -20°C.

A375M cells = experiment: Sensitization of A375M cells to BCNU (MTT assay); assay type: cell-based, human; conditions: for A375M sensitization (D50.^C/D50.^I) 0.5uM: inactivator 0.5uM 2 hours before; for A375M sensitization (D50.^C/D50.^I) 5.0uM: inactivator 5.0uM 2 hours before; for A375M sensitization (D50.^C/D50.^I) 1.0uM: inactivator 1.0uM 2 hours before
Protocol: Sensitization of A375M cells to the cytotoxic effects of BCNU was analysed by MTT assay ^24 differing from the XTT assay described above as follows. […] After 6 days MTT solution (4mg/ml) was added and cells incubated for 3 hours at 37°C. Medium was aspirated and the resulting purple formazan crystals were solubilised in DMSO (120μl) and cell viability was quantified by measuring absorption at 540nm using a microtitre plate reader.

[4] = 0.1mM in PBS (pH 7-7.2), read-out: T1/2(h) in PBS (converted)
[5] = 0.1mM in buffer I (1mM EDTA, 50mM Tris pH 8.3), read-out: T1/2(h) in Buffer I (converted)

| Molecule | IC50 (ATase [1]) [nM] | half-life at 100 µM [2, 4] [h] | IC50 (ATase [3]) [nM] | also measured |
| --- | --- | --- | --- | --- |
| CC(Oc1nc(N)nc2[nH]cnc12)c1ccccc1 (racemic) [B.4214, DL-O^6-(α -methylbenzyl)guanine, reference compound] | > 60000 |  |  | ability to inactivate recombinant human ATase (ATase [1]): did not inactivate ATase up to the highest concentration used |
| CC(Oc1nc(N)nc2[nH]cnc12)c1cccs1 (racemic) [B.4217, DL-O^6-(α -methylthenyl)guanine] | > 500000 |  |  | ability to inactivate recombinant human ATase (ATase [1]): did not inactivate ATase up to the highest concentration used |
| CC(Oc1nc(N)nc2[nH]cnc12)c1ccsc1 (racemic) [B.4219, DL-O^6-[1-(3-thienyl)ethyl]guanine] | 85000 | 0.12 | > 1000 | Raji sensitization (D90.^C/D90.^I) 0.5µM (Raji cells): 1.0; Raji sensitization (D90.^C/D90.^I) 1.0µM (Raji cells): 1.0; Raji sensitization (D90.^C/D90.^I) O.1µM (Raji cells): 1.0 |
| Nc1nc(OCc2ccsc2)c2nc[nH]c2n1 [B.4206, O^6-(3-thienylmethyl)guanine] | 30 | > 16 | 60 | A375M sensitization (D50.^C/D50.^I) 0.5uM (A375M cells): 3.3; A375M sensitization (D50.^C/D50.^I) 5.0uM (A375M cells): 4.6; half-life at 100 µM [2, 5]: > 80 h; Raji sensitization (D90.^C/D90.^I) 1.0µM (Raji cells): 6.0; Raji sensitization (D90.^C/D90.^I) O.1µM (Raji cells): 1.6; effectiveness in the in vitro ATase inactivation assay compared with BeG (ATase [1]): somewhat more effective than BeG |
| Nc1nc(OCc2ccoc2)c2nc[nH]c2n1 [B.4209, O^6-(3-furylmethyl)guanine] | 150 | > 16 | 150 | A375M sensitization (D50.^C/D50.^I) 1.0uM (A375M cells): 2.5; Raji sensitization (D90.^C/D90.^I) 0.5µM (Raji cells): 1.4; Raji sensitization (D90.^C/D90.^I) 1.0µM (Raji cells): 2.8; Raji sensitization (D90.^C/D90.^I) O.1µM (Raji cells): 1.5 |
| Nc1nc(OCc2ccccn2)c2nc[nH]c2n1 [B.4210, O^6-(2-picolyl)guanine] |  | > 16 |  | A375M sensitization (D50.^C/D50.^I) 1.0uM (A375M cells): 1.5 |
| Nc1nc(OCc2cccnc2)c2[nH]cnc2n1 [B.4211, O^6-(3-picolyl)guanine] | 430 | > 16 |  |  |
| Nc1nc(OCc2ccc3c(c2)OCO3)c2nc[nH]c2n1 [B.4212, O^6-piperonylguanine] | 20 | 0.72 | 50 | A375M sensitization (D50.^C/D50.^I) 0.5uM (A375M cells): 2.3; A375M sensitization (D50.^C/D50.^I) 5.0uM (A375M cells): 2.5; half-life at 100 µM [2, 5]: 1.3 h; Raji sensitization (D90.^C/D90.^I) 1.0µM (Raji cells): 10.7; Raji sensitization (D90.^C/D90.^I) O.1µM (Raji cells): 2.7; effectiveness in the in vitro ATase inactivation assay compared with BeG (ATase [1]): considerably better |
| Nc1nc(OCc2ccc3ccccc3c2)c2nc[nH]c2n1 [B.4213, O^6-(2-naphthylmethyl)guanine] | 150 | > 16 | 30 | A375M sensitization (D50.^C/D50.^I) 1.0uM (A375M cells): 2.0; Raji sensitization (D90.^C/D90.^I) 0.5µM (Raji cells): 2.1; Raji sensitization (D90.^C/D90.^I) 1.0µM (Raji cells): 2.9; Raji sensitization (D90.^C/D90.^I) O.1µM (Raji cells): 1.2 |
| Cc1ccccc1COc1nc(N)nc2[nH]cnc12 [B.4218, O^6-(2-methylbenzyl)guanine, reference compound] | 58000 |  |  |  |
| Cc1ccc(COc2nc(N)nc3[nH]cnc23)s1 [B.4220, O^6-(5-methylthenyl)guanine] | 9000 | > 16 | > 1000 | A375M sensitization (D50.^C/D50.^I) 1.0uM (A375M cells): 1.3; Raji sensitization (D90.^C/D90.^I) 0.5µM (Raji cells): 1.0; Raji sensitization (D90.^C/D90.^I) 1.0µM (Raji cells): 1.0; Raji sensitization (D90.^C/D90.^I) O.1µM (Raji cells): 1.0 |
| Cc1ccc(COc2nc(N)nc3[nH]cnc23)o1 [B.4221, O^6-(5-methylfurfuryl)guanine] | 10000 | > 16 | > 1000 | A375M sensitization (D50.^C/D50.^I) 1.0uM (A375M cells): 1.0; Raji sensitization (D90.^C/D90.^I) 0.5µM (Raji cells): 1.0; Raji sensitization (D90.^C/D90.^I) 1.0µM (Raji cells): 1.0; Raji sensitization (D90.^C/D90.^I) O.1µM (Raji cells): 1.0 |
| Nc1nc(OCc2cccc3ccccc23)c2nc[nH]c2n1 [B.4265, O^6-(1-naphthylmethyl)guanine] | 95000 |  |  | half-life at 100 µM [2, 5]: 60 h |
| Nc1nc(OCc2cc3ccccc3o2)c2nc[nH]c2n1 [B.4266, O^6-(2-benzofuranylmethyl)guanine] | 35 | > 16 |  | A375M sensitization (D50.^C/D50.^I) 0.5uM (A375M cells): 6.3; A375M sensitization (D50.^C/D50.^I) 5.0uM (A375M cells): 6.3 |
| Nc1nc(OCc2ccc3c(c2)OCO3)c2ncn([C@@H]3O[C@H](CO)[C@@H](O)[C@H]3O)c2n1 [B.4268, O^6-piperonylguanosine] | 750 | 8 |  |  |
| Nc1nc(OCc2ccc(Br)s2)c2nc[nH]c2n1 [B.4269, O^6-(5-bromothenyl)guanine] | 4.5 |  | 6 |  |
| Nc1nc(OCc2cnc3c(c2)OCO3)c2nc[nH]c2n1 [B.4271, O^6-(5-azapiperonyl)guanine] | 230 | > 16 |  |  |
| N#Cc1ccc(COc2nc(N)nc3[nH]cnc23)o1 [B.4273, O^6-(5-cyanofurfuryl)guanine] | 6 |  |  |  |
| Nc1nc(OCc2cnco2)c2nc[nH]c2n1 [B.4274, O^6-(5-oxazolylmethyl)guanine] | 340 |  |  |  |
| Nc1nc(OCc2cncs2)c2nc[nH]c2n1 [B.4275, O^6-(5-thiazolylmethyl)guanine] | 33 |  |  |  |
| Nc1nc(OCc2cc3ccccc3s2)c2ncn([C@@H]3O[C@H](CO)[C@@H](O)[C@H]3O)c2n1 [B.4276, O^6-(2-benzo[b]thienylmethyl)guanosine] | 350 |  |  |  |
| Nc1nc(OCc2ccncc2)c2nc[nH]c2n1 [B.4277, O^6-(4-picolyl)guanine] | 130 |  |  |  |
| Cn1cc([N+](=O)[O-])cc1COc1nc(N)nc2[nH]cnc12 [B.4278, O^6(1-methyl-4-nitropyrrol-2-ylmethyl) guanine] | 550 |  |  |  |
| Nc1nc(OCc2cccs2)c2ncn([C@@H]3O[C@H](CO)[C@@H](O)[C@H]3O)c2n1 [B.4279, O^6-thenylguanosine] | 900 |  |  |  |
| C=CCOc1nc(N)nc2[nH]cnc12 [O^6-allylguanine, reference compound] | 22000 |  |  | A375M sensitization (D50.^C/D50.^I) 0.5uM (A375M cells): 1.3; A375M sensitization (D50.^C/D50.^I) 5.0uM (A375M cells): 1.9; half-life at 100 µM [2, 5]: > 64 h |
| O^6-(2-methoxybenzyl)guanine [B.4231, reference compound] |  |  |  | IC50 (ATase [1]; recombinant human ATase incubated with inactivator 1 hour at 37°C before substrate, read-out: I50): 60000 nM |
